# ChEMBL document CHEMBL1201862, “PubChem BioAssay data set” (2004)
# Calls of active or inactive are those of the source.
# Columns and labels:
# Ion channel NompC = Ion channel NompC (Danio rerio, UniProt Q7T1G6); assay: Fluorescence counterscreen assay for TRPML3 agonists: dose response cell-based high-throughput screening assay to identify agonists of the transient receptor potential channel N1 (TRPN1). [Related pubchem assays: 1526, 1424, 1448 ]; assay type: functional
# Mucolipin-3 = Mucolipin-3 (Homo sapiens, UniProt Q8TDD5); assay: Dose response cell-based high-throughput screening assay for agonists of the transient receptor potential channel ML3 (TRPML3). [Related pubchem assays: 1526, 1424, 1448 ]; assay type: functional
# Sequence of Mucolipin-3 (Q8TDD5 whole entry): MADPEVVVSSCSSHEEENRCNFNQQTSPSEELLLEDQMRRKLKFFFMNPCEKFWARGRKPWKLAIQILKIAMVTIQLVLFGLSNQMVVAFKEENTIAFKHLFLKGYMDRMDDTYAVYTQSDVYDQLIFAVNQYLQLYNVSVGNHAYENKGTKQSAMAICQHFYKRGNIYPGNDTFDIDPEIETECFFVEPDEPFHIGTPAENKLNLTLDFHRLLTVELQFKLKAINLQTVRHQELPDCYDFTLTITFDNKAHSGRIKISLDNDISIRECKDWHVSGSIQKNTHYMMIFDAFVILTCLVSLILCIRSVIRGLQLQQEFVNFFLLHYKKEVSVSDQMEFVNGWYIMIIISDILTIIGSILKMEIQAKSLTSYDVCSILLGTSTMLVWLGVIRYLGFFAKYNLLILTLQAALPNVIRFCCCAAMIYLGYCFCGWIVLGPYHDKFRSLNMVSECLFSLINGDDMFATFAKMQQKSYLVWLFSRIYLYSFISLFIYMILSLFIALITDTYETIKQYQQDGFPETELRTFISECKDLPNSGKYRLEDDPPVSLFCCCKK
# [1] = target: T1, Heat shock 70 kDa protein 1A (Homo sapiens, UniProt P0DMV8); assay: small molecules displacing fluorescent ligand from Hsp70 – biochemical, fluorescence polarization, primary screen (AID 583)
# T1 sequence (P0DMV8 whole entry): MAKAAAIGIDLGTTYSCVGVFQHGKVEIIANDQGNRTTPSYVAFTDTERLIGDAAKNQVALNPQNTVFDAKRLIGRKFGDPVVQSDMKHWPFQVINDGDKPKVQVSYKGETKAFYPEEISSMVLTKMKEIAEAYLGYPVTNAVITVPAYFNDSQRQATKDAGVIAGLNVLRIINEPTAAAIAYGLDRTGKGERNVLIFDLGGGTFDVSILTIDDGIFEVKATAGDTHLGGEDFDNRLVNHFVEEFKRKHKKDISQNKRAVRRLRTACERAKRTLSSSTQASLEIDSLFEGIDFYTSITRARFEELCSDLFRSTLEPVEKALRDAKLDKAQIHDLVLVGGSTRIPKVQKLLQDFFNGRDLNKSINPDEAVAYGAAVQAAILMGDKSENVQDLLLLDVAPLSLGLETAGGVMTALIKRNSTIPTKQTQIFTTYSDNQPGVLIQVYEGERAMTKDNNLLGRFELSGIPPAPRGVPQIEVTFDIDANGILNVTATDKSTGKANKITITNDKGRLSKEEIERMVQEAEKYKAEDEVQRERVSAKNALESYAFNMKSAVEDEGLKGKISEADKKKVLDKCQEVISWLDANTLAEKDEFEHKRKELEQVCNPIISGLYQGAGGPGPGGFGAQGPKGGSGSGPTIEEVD
# [2] = target: T1, Heat shock 70 kDa protein 1A; assay: small-molecule inhibition of Hsp70 – biochemical, TR-FRET (AID 786)
# [3] = target: Mothers against decapentaplegic homolog 3 (Homo sapiens, UniProt P84022); assay: blockers of Smad3 complex formation in lysate – cell lysate, secondary confirmation, chemiluminescent ELISA, HEK293 lysate, dose response (AID 1058); assay type: functional
# Sequence of Mothers against decapentaplegic homolog 3 (P84022 whole entry): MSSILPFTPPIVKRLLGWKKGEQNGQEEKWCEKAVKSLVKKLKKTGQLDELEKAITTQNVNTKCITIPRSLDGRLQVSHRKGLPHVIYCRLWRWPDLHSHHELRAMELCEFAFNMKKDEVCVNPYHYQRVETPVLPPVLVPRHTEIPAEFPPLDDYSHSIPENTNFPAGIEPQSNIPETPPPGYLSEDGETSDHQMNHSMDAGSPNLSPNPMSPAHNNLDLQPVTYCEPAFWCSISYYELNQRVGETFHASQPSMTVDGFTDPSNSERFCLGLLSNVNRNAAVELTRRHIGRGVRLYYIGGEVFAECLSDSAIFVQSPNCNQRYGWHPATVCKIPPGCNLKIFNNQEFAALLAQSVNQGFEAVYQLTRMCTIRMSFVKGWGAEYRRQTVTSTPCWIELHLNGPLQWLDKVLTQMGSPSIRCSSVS
# [4] = antiviral protection against BTV-induced cell death – arbovirus, BSR cells, confirmation (AID 1250); assay type: functional;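 further: protection from viral cytopathic effect measured as cell viability by ATP luminescence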
# [5] = target: Neuropeptide Y receptor type 2 (Homo sapiens, UniProt P49146); assay: Fluorescence-based cell-based high-throughput dose response assay for agonists of NPY-Y2. [Related pubchem assays: 1703 (Screening assay (CNGC inhibitors).), 1359 (Screening assay (NPY-Y2 potentiators or agonists).), 1304 (Screening assay (NPY-Y1 potentiators or agonists).), 1710 (Screening assay (NPY-Y2 agonists).), 1791 (Summary AID.)]; assay type: functional
# Sequence of Neuropeptide Y receptor type 2 (P49146 whole entry): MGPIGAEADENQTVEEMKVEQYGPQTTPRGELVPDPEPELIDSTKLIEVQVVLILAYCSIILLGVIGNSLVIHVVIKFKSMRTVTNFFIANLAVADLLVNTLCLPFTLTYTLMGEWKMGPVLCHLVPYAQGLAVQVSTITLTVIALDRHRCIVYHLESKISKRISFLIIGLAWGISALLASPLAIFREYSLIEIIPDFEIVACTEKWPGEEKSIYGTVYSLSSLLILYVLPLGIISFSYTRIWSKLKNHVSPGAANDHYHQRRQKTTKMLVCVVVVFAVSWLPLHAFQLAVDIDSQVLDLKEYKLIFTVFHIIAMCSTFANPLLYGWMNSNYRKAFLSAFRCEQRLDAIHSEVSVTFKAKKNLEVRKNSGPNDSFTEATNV
# [6] = NIH3T3 cell viability loss – ATP luminescence, mouse fibroblasts, counter-screen, dose response (AID 2010); assay type: functional, cell-based;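 further: cells exposed to compound for about 90 hours before reading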
# [7] = target: Neuropeptide Y receptor type 1 (Homo sapiens, UniProt P25929); assay: Fluorescence-based counterscreen for agonists of NPY-Y2: cell-based high-throughput dose response assay for agonists of NPY-Y1.; assay type: functional
# Sequence of Neuropeptide Y receptor type 1 (P25929 whole entry): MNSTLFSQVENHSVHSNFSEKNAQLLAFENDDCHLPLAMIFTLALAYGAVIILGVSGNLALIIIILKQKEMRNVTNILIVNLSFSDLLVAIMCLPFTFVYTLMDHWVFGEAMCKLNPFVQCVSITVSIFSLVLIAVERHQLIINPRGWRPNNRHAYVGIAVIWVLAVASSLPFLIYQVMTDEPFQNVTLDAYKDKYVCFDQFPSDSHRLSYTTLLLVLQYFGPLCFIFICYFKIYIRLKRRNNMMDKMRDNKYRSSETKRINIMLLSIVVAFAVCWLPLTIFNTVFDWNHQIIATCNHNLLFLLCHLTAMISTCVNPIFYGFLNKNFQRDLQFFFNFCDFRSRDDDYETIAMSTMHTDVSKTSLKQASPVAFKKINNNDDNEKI
# HEK293 = assay: Fluorescence-based counterscreen for potentiators or agonists of NPY-Y2: cell-based high-throughput dose response assay to identify inhibitors of cyclic nucleotide gated ion channel (CNGC) activity. In this assay, the parental HEK293 cell line transfected with a cyclic-nucleotide gated ion channel (CNGC)-based cAMP sensor is used to measure inhibition of isoproterenol-induced CNGC activity by test compound.; assay type: functional; settings: Homo sapiens;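 further: stimulus is 1 µM isoproterenol at EC100 plus PDE inhibitor Ro 20-1724 at 25 µM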
# [8] = Trypanosoma cruzi growth suppression in host cells – NIH3T3 host cells, beta-gal luminescence, confirmation (AID 2044); assay type: functional, cell-based;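 further: intracellular parasites grown in NIH/3T3 mouse fibroblasts as host cells; luminescent beta-galactosidase reporter signal from transgenic T. cruzi replicating inside host cells; inhibitors lower the luminescence signal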
# [9] = target: T2, Heat shock factor protein 1 (Mus musculus, UniProt P38532); assay: enhancement of HSF1-driven luciferase signal – cell-based, NIH3T3, luminescence, dose retest, confirmation (AID 435004); assay type: functional;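 further: stress induced by proteasome inhibitor MG132 added 30 min after compound; luciferase reporter driven by HSF1 response element in NIH3T3 cells; actives raise luminescence as potentiators of the MG132 stress response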
# T2 sequence (P38532 whole entry): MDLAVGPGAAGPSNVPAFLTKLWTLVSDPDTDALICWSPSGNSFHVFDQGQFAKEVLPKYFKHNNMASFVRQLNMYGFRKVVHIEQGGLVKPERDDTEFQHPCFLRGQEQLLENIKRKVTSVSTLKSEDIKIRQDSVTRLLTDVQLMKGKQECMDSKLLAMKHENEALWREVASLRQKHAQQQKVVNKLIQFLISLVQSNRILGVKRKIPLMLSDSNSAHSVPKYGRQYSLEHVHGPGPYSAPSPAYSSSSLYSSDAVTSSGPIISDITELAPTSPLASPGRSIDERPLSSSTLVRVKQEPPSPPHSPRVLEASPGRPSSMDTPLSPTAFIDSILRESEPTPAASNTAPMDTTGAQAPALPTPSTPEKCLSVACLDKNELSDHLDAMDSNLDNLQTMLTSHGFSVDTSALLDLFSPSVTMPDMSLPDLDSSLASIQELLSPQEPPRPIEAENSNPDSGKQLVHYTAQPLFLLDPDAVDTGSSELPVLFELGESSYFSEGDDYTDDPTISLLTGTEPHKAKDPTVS
# HeLa = assay: Cytotoxicity counterscreen assay for transcriptional activators of heat shock protein 70 (Hsp70). [Related pubchem assays: 1203, 1252 ]; assay type: functional; settings: Homo sapiens
# [10] = target: Sphingosine 1-phosphate receptor 4 (Homo sapiens, UniProt O95977); assay: Fluorescence dose response cell-based high throughput screening assay for antagonists of the Sphingosine 1-Phosphate Receptor 4 (S1P4). [Related pubchem assays: 1524 (Confirmation in triplicates.), 1510 (Primary screen.)]; assay type: functional
# Sequence of Sphingosine 1-phosphate receptor 4 (O95977 whole entry): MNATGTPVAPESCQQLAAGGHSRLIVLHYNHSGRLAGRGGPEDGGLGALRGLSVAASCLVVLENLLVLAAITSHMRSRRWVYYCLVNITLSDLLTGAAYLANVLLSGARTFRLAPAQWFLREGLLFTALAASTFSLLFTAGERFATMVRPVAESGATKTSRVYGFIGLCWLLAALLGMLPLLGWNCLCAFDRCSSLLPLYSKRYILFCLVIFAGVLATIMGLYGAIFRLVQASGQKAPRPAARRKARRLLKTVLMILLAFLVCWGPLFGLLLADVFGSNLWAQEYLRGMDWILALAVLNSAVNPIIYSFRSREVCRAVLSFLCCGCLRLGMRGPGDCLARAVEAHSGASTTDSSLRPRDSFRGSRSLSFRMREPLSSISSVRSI
# [11] = target: T3, Microphthalmia-associated transcription factor (Homo sapiens, UniProt O75030); assay: reducers of TRPM1 reporter luminescence, concentration series – cell-based, SK-MEL-5, cherry-picked, set 3, MITF inhibitor project, dose response (AID 493073); assay type: functional;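 further: SK-MEL-5 melanoma cells with luciferase driven by the MITF target TRPM1 promoter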
# T3 sequence (O75030 whole entry): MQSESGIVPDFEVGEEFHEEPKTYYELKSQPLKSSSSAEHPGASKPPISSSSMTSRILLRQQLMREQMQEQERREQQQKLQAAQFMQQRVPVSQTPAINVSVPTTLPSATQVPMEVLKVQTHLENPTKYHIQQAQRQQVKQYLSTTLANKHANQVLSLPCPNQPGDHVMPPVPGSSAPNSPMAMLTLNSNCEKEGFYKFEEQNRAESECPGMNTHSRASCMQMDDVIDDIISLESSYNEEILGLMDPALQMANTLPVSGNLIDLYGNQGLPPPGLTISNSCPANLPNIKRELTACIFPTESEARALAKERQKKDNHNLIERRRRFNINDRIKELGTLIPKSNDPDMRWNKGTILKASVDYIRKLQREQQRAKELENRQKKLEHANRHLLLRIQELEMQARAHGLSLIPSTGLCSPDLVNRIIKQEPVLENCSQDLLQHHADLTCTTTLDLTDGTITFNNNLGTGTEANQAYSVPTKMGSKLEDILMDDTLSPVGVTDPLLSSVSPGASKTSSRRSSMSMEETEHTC
# [12] = target: Sphingosine 1-phosphate receptor 1 (Homo sapiens, UniProt P21453); assay type: functional;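 further: Tango beta-arrestin reporter U2OS cells stimulated with S1P near its EC80; inhibitor potency meaning antagonism of receptor activation by the natural agonist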
# Paired box protein Pax-8 = Paired box protein Pax-8 (Homo sapiens, UniProt Q06710); assay: PAX8 transcriptional activity inhibition in RMG-I – RMG-I cells, luciferase, cherry-pick, dose response (AID 687027); assay type: functional, cell-based;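 further: luciferase reporter driven by Pax8 target thyroperoxidase promoter measured by SteadyGlo luminescence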
# Sequence of Paired box protein Pax-8 (Q06710 whole entry): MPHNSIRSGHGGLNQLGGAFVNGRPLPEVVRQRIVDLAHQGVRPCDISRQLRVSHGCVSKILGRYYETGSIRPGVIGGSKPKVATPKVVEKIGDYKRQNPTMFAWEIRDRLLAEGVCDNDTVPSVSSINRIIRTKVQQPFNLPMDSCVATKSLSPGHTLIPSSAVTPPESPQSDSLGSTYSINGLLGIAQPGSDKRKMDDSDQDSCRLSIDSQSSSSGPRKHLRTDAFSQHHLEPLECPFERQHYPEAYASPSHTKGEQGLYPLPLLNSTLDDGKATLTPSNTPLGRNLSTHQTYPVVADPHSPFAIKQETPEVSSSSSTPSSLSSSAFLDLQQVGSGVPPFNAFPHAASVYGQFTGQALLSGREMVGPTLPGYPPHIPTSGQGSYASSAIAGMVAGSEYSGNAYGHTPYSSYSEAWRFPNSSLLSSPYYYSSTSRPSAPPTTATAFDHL
# Kallikrein-7 = Kallikrein-7 (Homo sapiens, UniProt P49862); assay: Fluorescence Intensity-based biochemical primary high throughput dose response assay to identify activators of kallikrein-7 (K7) zymogen.
# Vero = assay: Vero cell viability after compound exposure – synthesized analogs, set II, cytotoxicity control for West Nile virus antiviral project, SAR follow-up (AID 2402); assay type: functional; settings: Chlorocebus sabaeus
# [13] = A Cell Based Assay for the Identification of Probe candidate Compounds with Anti- Venezuelan Equine Encephalitis virus. [Related pubchem assays: 2409, 2419, 1621, 2238, 2405, 2024, 2065, 2402, 2414, 1635, 1650, 2244 ]; assay type: functional
# [14] = mitochondrial function rescue without frataxin homolog – Friedreich's ataxia, plus single-dose screen, dose response (AID 1465); assay type: functional;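 further: yeast depleted of Yfh1p frataxin homolog grown on glycerol needing respiration; WST-1 tetrazolium dye reduction as measure of cellular dehydrogenase metabolic activity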
# Leucine aminopeptidase = target: T4, Leucine aminopeptidase (Plasmodium falciparum 3D7, UniProt Q8IL11); assay: P. falciparum M17LAP inhibitors, primary screen, biochemical, fluorogenic H-Leu-NHMec substrate, 1536-well (AID 1619); assay type: functional
# T4 sequence (Q8IL11 whole entry): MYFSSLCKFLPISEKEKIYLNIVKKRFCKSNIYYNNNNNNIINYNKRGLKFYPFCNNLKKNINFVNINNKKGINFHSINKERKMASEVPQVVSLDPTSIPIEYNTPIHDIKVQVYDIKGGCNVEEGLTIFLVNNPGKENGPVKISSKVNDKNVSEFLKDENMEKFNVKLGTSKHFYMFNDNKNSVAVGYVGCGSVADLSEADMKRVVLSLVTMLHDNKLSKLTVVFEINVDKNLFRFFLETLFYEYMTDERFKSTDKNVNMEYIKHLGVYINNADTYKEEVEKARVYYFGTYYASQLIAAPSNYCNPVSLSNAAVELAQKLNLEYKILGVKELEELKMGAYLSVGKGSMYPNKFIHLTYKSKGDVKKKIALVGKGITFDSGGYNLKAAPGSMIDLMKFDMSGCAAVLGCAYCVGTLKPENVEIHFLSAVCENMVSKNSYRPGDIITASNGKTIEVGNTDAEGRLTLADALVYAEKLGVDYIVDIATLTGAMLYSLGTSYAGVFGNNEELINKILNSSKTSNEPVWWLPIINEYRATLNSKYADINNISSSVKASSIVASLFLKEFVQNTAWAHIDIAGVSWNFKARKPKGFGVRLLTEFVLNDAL
# Estrogen receptor = target: T5, Estrogen receptor (Homo sapiens, UniProt P03372); assay: blockers of SRC-3 recruitment to ERα – biochemical, ELISA, streptavidin-HRP readout, orthogonal assay, confirmation (AID 1079)
# T5 sequence (P03372 whole entry): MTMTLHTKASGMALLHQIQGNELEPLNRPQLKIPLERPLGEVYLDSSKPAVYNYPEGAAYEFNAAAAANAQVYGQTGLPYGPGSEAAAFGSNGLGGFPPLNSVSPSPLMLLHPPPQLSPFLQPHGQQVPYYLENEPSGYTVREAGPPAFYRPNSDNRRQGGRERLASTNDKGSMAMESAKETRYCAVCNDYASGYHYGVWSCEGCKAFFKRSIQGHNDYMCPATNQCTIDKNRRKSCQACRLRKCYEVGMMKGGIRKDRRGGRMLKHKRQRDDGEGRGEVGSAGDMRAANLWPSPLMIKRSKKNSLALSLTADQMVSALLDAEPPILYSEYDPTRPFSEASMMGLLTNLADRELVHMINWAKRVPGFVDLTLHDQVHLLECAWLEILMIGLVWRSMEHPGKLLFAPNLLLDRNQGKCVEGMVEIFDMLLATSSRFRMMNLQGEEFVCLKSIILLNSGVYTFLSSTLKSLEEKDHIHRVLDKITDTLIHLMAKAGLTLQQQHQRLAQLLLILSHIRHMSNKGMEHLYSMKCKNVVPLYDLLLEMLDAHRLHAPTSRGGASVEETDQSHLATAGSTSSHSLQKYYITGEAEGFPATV
# [15] = target: Heat shock protein HSP 90-alpha (Homo sapiens, UniProt P07900); assay type: functional, organism-based
# INS1 = assay: INS-1E survival protection against cytokine death – cell-based, luminescence, retest, dose response (AID 449756); assay type: functional; settings: Rattus norvegicus;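 further: cell death triggered by IL-1 beta plus TNF-alpha plus IFN-gamma mixture; protective hits raise ATP signal compared with cytokine alone wells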
# [16] = off-target signal loss in HeLa-CEM21 co-culture – HeLa F-luc CTL cells, cherry-picked, counter-screen for HIV-1 Env fusion inhibitor project, dose response (AID 652040); assay type: functional, cell-based;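 further: potency for signal decrease marking cytotoxic or nonspecific inhibition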
# [17] = blockers of HIV-1 ZM109 envelope-driven cell-cell fusion – HeLa effector, CEM target cells, luciferase, cherry-pick, dose response (AID 652058); assay type: functional, cell-based;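 further: luciferase signal from HIV-1 Env mediated cell-cell fusion of effector and target cells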
# [18] = Counterscreen for AddAB inhibitors: absorbance-based bacterial cell-based high throughput dose response assay for inhibitors of bacterial viability. [Related pubchem assays (depositor defined):AID435030, AID449728, AID449731, AID488942, AID488955, AID488956]; assay type: functional
# [19] = Luminescence Cell-Based Dose Retest to Confirm Inhibitors of Cancer Stem Cells. [Related pubchem assays (depositor defined):AID2717, AID2721]; assay type: functional; settings: Homo sapiens
# [20] = blockers of HIV-1 envelope-mediated cell-cell fusion – cherry-pick, dose response (AID 652057); assay type: functional, cell-based
# [21] = viability loss in CEM21 cells – cell-based, CellTiter-Glo luminescence, cherry-picked, cytotoxicity control for viral fusion inhibitor project, dose response (AID 652042); assay type: functional;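 further: potency for signal decrease meaning cytotoxicity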
# [22] = Luminescence-based counterscreen assay for KLF5 inhibitors: dose response cell-based high throughput screening assay to identify cytotoxic compounds using the IEC-6 intestinal epithelial cell line. [Related pubchem assays: 1700 (Primary screen.), 1834 (Confirmation screen.), 1858 (Summary AID.), 1905 (Counterscreen.)]; assay type: functional
# Exodeoxyribonuclease V = Exodeoxyribonuclease V (Escherichia coli (strain K12), UniProt P04993+P07648+P08394); assay: RecBCD inhibition via phage-restricted bacterial growth – absorbance, V66 E. coli, mutant T4 phage, counter-screen for AddAB inhibitor project, dose response (AID 492957); assay type: functional, cell-based, Escherichia coli str. K-12 substr. MG1655
# [23] = HIV-1 AD8 envelope cell-cell fusion blockers – cherry-pick, dose response (AID 652062); assay type: functional, cell-based;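 further: luciferase signal from cell-cell fusion driven by HIV-1 clade B AD8 Env; potency is for inhibitors of fusion seen as a drop in luminescence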
# Sequence of Ion channel NompC (Q7T1G6 whole entry): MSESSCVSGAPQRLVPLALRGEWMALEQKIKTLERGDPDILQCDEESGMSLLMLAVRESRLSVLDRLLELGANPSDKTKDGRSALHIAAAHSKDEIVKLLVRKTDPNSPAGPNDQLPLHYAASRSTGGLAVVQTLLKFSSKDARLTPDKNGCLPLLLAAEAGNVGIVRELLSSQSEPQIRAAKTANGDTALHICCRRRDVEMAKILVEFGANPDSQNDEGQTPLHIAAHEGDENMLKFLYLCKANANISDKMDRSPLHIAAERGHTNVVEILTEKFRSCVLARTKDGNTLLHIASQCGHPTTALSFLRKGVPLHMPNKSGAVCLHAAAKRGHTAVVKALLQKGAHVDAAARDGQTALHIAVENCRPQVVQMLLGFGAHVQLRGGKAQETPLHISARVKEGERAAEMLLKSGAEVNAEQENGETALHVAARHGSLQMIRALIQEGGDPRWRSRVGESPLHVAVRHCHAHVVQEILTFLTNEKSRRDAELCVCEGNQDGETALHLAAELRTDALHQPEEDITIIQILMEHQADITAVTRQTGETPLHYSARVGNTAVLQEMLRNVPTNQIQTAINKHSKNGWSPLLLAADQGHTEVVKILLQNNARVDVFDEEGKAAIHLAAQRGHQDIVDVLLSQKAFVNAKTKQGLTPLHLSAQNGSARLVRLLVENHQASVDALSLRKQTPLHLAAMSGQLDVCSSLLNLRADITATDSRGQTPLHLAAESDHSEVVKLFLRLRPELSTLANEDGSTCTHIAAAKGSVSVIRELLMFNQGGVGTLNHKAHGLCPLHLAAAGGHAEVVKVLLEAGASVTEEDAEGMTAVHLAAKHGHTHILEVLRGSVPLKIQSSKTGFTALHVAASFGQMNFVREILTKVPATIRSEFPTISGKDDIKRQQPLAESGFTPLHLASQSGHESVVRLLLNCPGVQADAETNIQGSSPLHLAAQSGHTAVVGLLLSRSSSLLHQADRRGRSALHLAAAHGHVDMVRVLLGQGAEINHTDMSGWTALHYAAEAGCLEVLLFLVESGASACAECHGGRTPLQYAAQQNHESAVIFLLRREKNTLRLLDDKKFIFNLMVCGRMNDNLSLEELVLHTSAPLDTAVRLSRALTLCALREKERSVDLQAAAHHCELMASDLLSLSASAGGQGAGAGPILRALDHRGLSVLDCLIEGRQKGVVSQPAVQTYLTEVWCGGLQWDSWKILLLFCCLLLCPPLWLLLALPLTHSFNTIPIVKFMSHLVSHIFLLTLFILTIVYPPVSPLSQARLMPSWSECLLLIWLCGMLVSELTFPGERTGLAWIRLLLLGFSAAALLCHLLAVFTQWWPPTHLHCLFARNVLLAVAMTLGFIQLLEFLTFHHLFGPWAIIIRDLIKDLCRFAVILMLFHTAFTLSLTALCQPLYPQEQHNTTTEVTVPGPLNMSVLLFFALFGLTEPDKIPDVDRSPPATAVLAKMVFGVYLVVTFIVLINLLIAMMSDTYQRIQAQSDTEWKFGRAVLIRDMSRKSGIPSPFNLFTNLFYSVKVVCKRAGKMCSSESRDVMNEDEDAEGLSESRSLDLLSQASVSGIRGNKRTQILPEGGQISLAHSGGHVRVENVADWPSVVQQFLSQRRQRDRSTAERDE
structure (smiles),measurement,setting,value
COC(=O)c1c(NC(=O)COC(=O)[C@@H](NS(=O)(=O)c2ccc(C)cc2)C(C)C)sc2c1CCC2,EC50,Ion channel NompC,> 29.9 µM (not active)
same,EC50,Mucolipin-3,2.8 µM (active)
CC(=O)Nc1cc2c(cc1C(C)=O)OCCO2,IC50,[1],> 100 µM (not active)
same,IC50,[2],> 100 µM (not active)
COc1cc(OC)c(C(c2cc3c(cc2O)OCO3)N2CCOCC2)c(OC)c1 (centres undefined),IC50,[3],> 40 µM (not active)
Cc1ccc2cc(C3CC(c4ccco4)=NN3S(=O)(=O)c3ccccc3)c(Cl)nc2c1 (centres undefined),IC50,[4],40.7 µM (active)
Nc1c(-c2ccccc2)c(CSc2nc3ccccc3[nH]2)nn1-c1ccc(Cl)cc1,EC50,[5],6.65 µM (active)
same,EC50,[6],12.2 µM (active)
same,EC50,[7],7.41 µM (active)
same,EC50,HEK293,> 35.4 µM (not active)
same,EC50,[8],0.595 µM (active)
O=C(Nc1ccc(N2CCN(C(=O)c3ccccc3)CC2)cc1)c1ccc([N+](=O)[O-])o1,EC50,[9],8.79 µM (active)
same,CC50,HeLa,7.65 µM (active)
same,IC50,[10],1.64 µM (active)
same,AC50,[11],17.9 µM (active)
same,IC50,[12],12.7 µM (not active)
same,AC50,Paired box protein Pax-8,3.92 µM (active)
OC1c2cc(Cl)cc(Cl)c2N=C2CCCN21 (centres undefined),EC50,Kallikrein-7,48.5 µM (inactive)
same,CC50,Vero,> 200 µM (active)
same,IC50,[13],< 0.26 µM (active)
N#C/C(=C\c1ccc(N2CCOCC2)o1)C(=O)N1CCOCC1,EC50,[14],> 100 µM (active)
same,IC50,Leucine aminopeptidase,99.7 µM (active)
O=C(CCCCCn1c(=S)[nH]c2ccccc2c1=O)N1CCC(N(Cc2ccccc2)c2ccccc2)CC1,IC50,Estrogen receptor,0.12 µM (not active)
COc1cccc(/C=N/Nc2ncc(C(F)(F)F)cc2Cl)c1O,AC50,[15],5.59 µM (active)
same,AC50,INS1,0.584 µM (active)
same,AC50,[16],17.4 µM (active)
same,AC50,[17],1.45 µM (active)
same,IC50,[18],98.2 µM (inactive)
same,AC50,[19],0.469 µM (active)
same,AC50,[20],1.37 µM (active)
same,AC50,[21],2.15 µM (active)
same,IC50,[22],26.8 µM (not active)
same,IC50,Exodeoxyribonuclease V,> 119 µM (inactive)
same,AC50,[23],7.04 µM (active)
